Measurements reported in patent publication US7731985B2, “4-aminopyrimidines and their use for the antimicrobial treatment of surfaces” (Ciba Specialty Chemicals Corporation, priority 2002, dated 2010).

Key:
Assay in all cases: MIC in microtitre plates (Example 10)
Assay type in all cases: cell-based
Set-up in all cases: unit not given here
Settings in all cases: microtitre plate, 48 hours at 37° C., ≦20% growth
[1] = system: Staphylococcus aureus ATCC 9144 (=SA)
Experimental: (§1) Determination of the Minimum Inhibitory Concentration (MIC Value) in Microtitre Plates Casein/soymeal peptone broth for preparation of pre-cultures of test bacteria and yeast Bacteria: • Pseudomonas aeruginosa CIP A-22 (=PA) • Escherichia coli NCTC 8196 (=EC) • Staphylococcus aureus ATCC 9144 (=SA) • Candida albicans ATCC 10231 (=CA) The test substances are pre-dissolved in dimethyl sulfoxide (DMSO) and tested in a dilution series of 1:2. Bacteria and yeast are cultured overnight in CASO broth. All the test organism suspensions are adjusted to an organism count of 1-5×10^6 CFU/ml using […] sodium chloride solution. The test substances are pre-pipetted into microtitre plates in amounts of 8 μl per well. The pre-adjusted organism suspensions are diluted 1:100 in CASO broth and are added in amounts of 192 μl per well to the test substances. The test batches are incubated for 48 hours at 37° C. The incubation, the growth is determined on the basis of the turbidity of the test batches (optical density) at 620 nm in a microplate reader. The minimum inhibitory concentration (MIC value) is the concentration of substance at which (compared to the growth of the control) an appreciable inhibition of growth (≦20% growth) of the test organisms is observed. Three microtitre plates are used for each test organism and substance concentration. All the substances are tested in duplicate.

[2] = system: Candida albicans ATCC 10231 (=CA)
Experimental: as §1

[3] = system: Pseudomonas aeruginosa CIP A-22 (=PA)
Experimental: as §1

[4] = system: Escherichia coli NCTC 8196 (=EC)
Experimental: as §1

| MIC SA [1] | MIC CA [2] | MIC PA [3] | MIC EC [4] | SMILES |
| --- | --- | --- | --- | --- |
| 120 | >120 | >120 | >120 | Cc1cc(Nc2ccccn2)nc(-c2cccnc2)n1 [compound 47] |
| 30 | 60 | >120 | >120 | Cc1cc(NCCc2ccccc2)nc(-c2cccnc2)n1 [compound 48] |
| 30 | >120 | >120 | >120 | Cc1cc(NCc2ccco2)nc(-c2cccnc2)n1 [compound 51] |
| 15 | 60 | >120 | 60 | CCCCCCCCNc1cc(C)nc(-c2cccs2)n1 [compound 59] |
| 120 | 120 | >120 | >120 | CCCCCCCCNc1cc(C)nc(-c2cccc(C)c2)n1 [compound 60] |
| 30 | 120 | >120 | 120 | CCCCCCCCNc1cc(C)nc(-c2cccc(F)c2)n1 [compound 61] |
| 60 | 120 | >120 | 120 | CCCCCCCCNc1cc(C)nc(-c2cccc(OC)c2)n1 [compound 62] |
| 7.5 | 15 | >120 | 30 | CCCCCCCCNc1cc(C)nc(-c2ccccc2)n1 [compound 64] |
| 30 | 15 | >120 | 60 | CCCCCCCCNc1cc(C)nc(C)n1 [compound 65] |
| <3.75 | 30 | >120 | 30 | CCCCCCCCNc1cc(C)nc(-c2ccc(C)cc2)n1 [compound 66] |
| <3.75 | 7.5 | >120 | 30 | CCCCCCCCNc1cc(C)nc(-c2csc(C)n2)n1 [compound 69] |
| 7.5 | 7.5 | >120 | 15 | CCCCCCCCCCCCCCNc1cc(C)nc(-c2ccc(-c3ccccc3)cc2)n1 [compound 71] |
| 7.5 | 7.5 | >120 | 15 | CCCCCCCCCCCCCCNc1cc(C)nc(-c2ccc(C(C)(C)C)cc2)n1 [compound 72] |
| <3.75 | <3.75 | >120 | 7.5 | CCCCCCCCCCCCCCNc1cc(C)nc(-c2cccs2)n1 [compound 73] |
| <3.75 | <3.75 | >120 | 7.5 | CCCCCCCCCCCCCCNc1cc(C)nc(-c2ccsc2)n1 [compound 74] |
| 7.5 | 7.5 | >120 | 15 | CCCCCCCCCCCCCCNc1cc(C)nc(-c2cccc(F)c2)n1 [compound 75] |
| 15 | 30 | >120 | 60 | CCCCCCCCCCCCCCNc1cc(C)nc(-c2ccccc2)n1 [compound 76] |
| 7.5 | 15 | >120 | 60 | CCCCCCCCCCCCCCNc1cc(C)nc(-c2ccncc2)n1 [compound 77] |
| <3.75 | <3.75 | >120 | <3.75 | CCCCCCCCCCCCCCNc1cc(C)nc(C(C)C)n1 [compound 81] |
| 15 | 7.5 | >120 | 15 | CCCCCCCCCCCCNc1cc(C)nc(-c2ccc(-c3ccccc3)cc2)n1 [compound 84] |

Continued, compound first:

| SMILES | MIC SA [1] | MIC CA [2] | MIC PA [3] | MIC EC [4] |
| --- | --- | --- | --- | --- |
| Cc1cc(NCc2ccccn2)nc(-c2cccnc2)n1 [compound 49] | 120 | >120 | >120 | >120 |
| Cc1cc(N2CCOCC2)nc(-c2cccnc2)n1 [compound 50] | 120 | >120 | >120 | >120 |
| CCCN(CCC)c1cc(C)nc(-c2cccnc2)n1 [compound 52] | 30 | 120 | >120 | >120 |
| CCCCN(C)c1cc(C)nc(-c2cccnc2)n1 [compound 53] | 60 | 120 | >120 | >120 |
| CCCCN(CCCC)c1cc(C)nc(-c2cccnc2)n1 [compound 54] | 15 | 120 | >120 | >120 |
| Cc1cc(N(C)CCO)nc(-c2cccnc2)n1 [compound 55] | 120 | >120 | >120 | >120 |
| Cc1cc(N2CCCCCC2)nc(-c2cccnc2)n1 [compound 56] | 60 | 120 | >120 | >120 |
| CCCCCCCCNc1cc(C)nc(-c2ccc(-c3ccccc3)cc2)n1 [compound 57] | 60 | 120 | >120 | >120 |
| CCCCCCCCNc1cc(C)nc(-c2ccc(C(C)(C)C)cc2)n1 [compound 58] | 15 | 60 | >120 | 120 |
| CCCCCCCCNc1cc(C)nc(-c2ccccc2)n1 [compound 63] | 15 | 60 | >120 | 30 |
| CCCCCCCCNc1cc(C)nc(C2CC2)n1 [compound 67] | 7.5 | 7.5 | >120 | 30 |
| CCCCCCCCNc1cc(C)nc(C(C)C)n1 [compound 68] | 15 | 15 | >120 | 30 |
| CCCCCCCCNc1cc(C)nc(-c2ccc(C)c(F)c2)n1 [compound 70] | <3.75 | 7.5 | >120 | 15 |
| CCCCCCCCCCCCCCNc1cc(C)nc(C)n1 [compound 78] | <3.75 | <3.75 | >120 | 7.5 |
| CCCCCCCCCCCCCCNc1cc(C)nc(-c2ccc(C)cc2)n1 [compound 79] | <3.75 | <3.75 | >120 | <3.75 |
| CCCCCCCCCCCCCCNc1cc(C)nc(C2CC2)n1 [compound 80] | <3.75 | 7.5 | >120 | 7.5 |
| CCCCCCCCCCCCCCNc1cc(C)nc(-c2csc(C)n2)n1 [compound 82] | <3.75 | 7.5 | >120 | 15 |
| CCCCCCCCCCCCCCNc1cc(C)nc(-c2ccc(C)c(F)c2)n1 [compound 83] | <3.75 | <3.75 | >120 | 7.5 |
| CCCCCCCCCCCCNc1cc(C)nc(-c2ccc(C(C)(C)C)cc2)n1 [compound 85] | 15 | 7.5 | <120 | 7.5 |
